These results are taken from ChEMBL document CHEMBL1152320, “Diterpene formamides from the tropical marine sponge Cymbastela hooperi and their antimalarial activity in vitro” (J Nat Prod, 2009).

Structures are written as SMILES. In brackets after ≈: the same amount, converted by molar mass.

For assay [1], the system named is Plasmodium falciparum. Description: Antiplasmodial activity after 48 hrs against Plasmodium falciparum FCR3F86 by [3H]hypoxanthine uptake. Type of assay: functional, organism-based.
The test system of assay [2] is Plasmodium falciparum. Put plainly: Antiplasmodial activity after 48 hrs against Plasmodium falciparum W2 by [3H]hypoxanthine uptake. The class given is functional, organism-based.
Assay [3] concerns Plasmodium falciparum. Description: Antiplasmodial activity after 48 hrs against Plasmodium falciparum D6 by [3H]hypoxanthine uptake. The class given is functional, organism-based.
The test system of assay [4] is KB. Description: Cytotoxicity against human KB cells assessed as [3H]hypoxanthine incorporation after 48 hrs. The class given is functional, cell-based.

The term IC50 denotes the concentration at which inhibition is half-maximal.

Turning to `C[C@H]1C[C@H]2CC(C)(C)C=C3CC[C@H]4[C@@H]([C@@H]1CC[C@]4(C)NC=O)[C@@H]32` (relative stereo), the IC50 in assay [1] is > 100 µg/mL.

Take `C=C1CC[C@H]2[C@H]3[C@H](CC[C@]2(C)NC=O)[C@@H](C)C[C@H](C=C(C)C)[C@H]13` (relative stereo): 63 µg/mL (≈ 200 µM) corresponded to half-maximal inhibition in assay [1] (IC50).

For `O=C1C(O)=C([C@H]2CC[C@H](c3ccc(Cl)cc3)CC2)C(=O)c2ccccc21` [ATOVAQUONE], the IC50 in assay [1] is 0.0004 µg/mL (≈ 0.00109 µM); in assay [2] it was 0.0008 µg/mL (≈ 0.00218 µM); in assay [3] it was 0.0002 µg/mL (≈ 0.000545 µM); in assay [4], > 5 µg/mL.

With `[C-]#[N+][C@]1(C)[C@H](C)C[C@@H]2C[C@H](C)[C@H]3CC[C@](C)(NC=O)[C@H]4CC[C@H]1[C@@H]2[C@H]34`, the IC50 is 0.2 µg/mL (≈ 0.584 µM) in assay [1], 0.6 µg/mL (≈ 1.75 µM) in assay [2], 0.8 µg/mL (≈ 2.34 µM) in assay [3] and > 5 µg/mL in assay [4].

As to `C[C@@H]1C[C@@H]2C[C@H](C)[C@H]3CC[C@](C)(NC=O)[C@H]4CC[C@@H]([C@@H]2[C@H]34)[C@]1(C)NC=O`, half-maximal inhibition in assay [1] (IC50) required 14.8 µg/mL (≈ 41 µM).

Take `C=C(C)C[C@@H]1C[C@H](C)[C@H]2CC[C@](C)(NC=O)[C@H]3CCC(=C)[C@@H]1[C@H]23` (relative stereo): the IC50 in assay [1] was > 90 µg/mL.
